This passage reports IC50 results from US20250276983A1, “COMPOUNDS AND METHODS FOR MODULATING HER2” (IAMBIC THERAPEUTICS, INC., priority 2022, published 2025).

The term IC50 denotes the concentration that gives 50% inhibition.

What all share (format): cell-based
In one test the test system is BaF3_HER2WT cells. Put plainly: Cell growth inhibition assay, BaF3_HER2WT. The settings on record: 72 h, 3 days treatment, CellTiterGlo 2.0, read-out: HER2 WT IC50 (nM), cell growth inhibition. Background: In ATP-based viability assays light output follows the ATP content of the culture.
A further test concerns BaF3_HER2YVMA cells. The experiment in a line: Cell growth inhibition assay, BaF3_HER2YVMA. The conditions noted are these: 72 h, BaF3_HER2YVMA cells, 3 days treatment, CellTiterGlo 2.0; read-out: HER2-YVMA IC50 (nM), cell growth inhibition.
In another test the test system is BaF3_EGFRWT cells. The experiment in a line: Cell growth inhibition assay, BaF3_EGFRWT. The conditions noted are these: 72 h, 80 ng/mL recombinant human EGF, 3 days treatment, CellTiterGlo 2.0, read-out: EGFR WT IC50 (nM), cell growth inhibition.

Each structure is given as a SMILES string.

Take `Cc1cc(Nc2ncnn3ccc(C4CCN(C(=O)C#CCN(C)C)CC4)c23)ccc1Oc1ccn2ncnc2c1` [Example 64, 1-(4-(4-((4-([1,2,4]triazolo[1,5-a]pyridin-7-yloxy)-3-methylphenyl)amino)pyrrolo[2,1-f][1,2,4]triazin-5-yl)piperidin-1-yl)-4-(dimethylamino)but-2-yn-1-one]: the IC50 was less than 200 nM in the test with BaF3_HER2WT cells, less than 200 nM in the test on BaF3_HER2YVMA cells and 200 to 500 nM in the test with BaF3_EGFRWT cells.

As to `Cc1cc(Nc2ncnn3ccc(C4CCN(C(=O)/C=C/CN(C)C)CC4)c23)ccc1Oc1ccc2c(c1)ncn2C` [Example 133, (E)-4-(dimethylamino)-1-(4-(4-((3-methyl-4-((1-methyl-1H-benzo[d]-224-midazole-5-yl)oxy)phenyl)amino)pyrrolo[2,1-f][1,2,4]triazin-5-yl)piperidin-1-yl)but-2-en-1-one], the IC50 was less than 200 nM in the test on BaF3_HER2WT cells, less than 200 nM in the test on BaF3_HER2YVMA cells and 1500 to 5000 nM in the test on BaF3_EGFRWT cells.

`Cc1cc(Nc2ncnn3ccc(C4CCN(C(=O)/C=C/CN5CC(F)C5)CC4)c23)ccc1Oc1ccc2c(c1)ncn2C` [Example 162, (E)-4-(3-fluoroazetidin-1-yl)-1-(4-(4-((3-methyl-4-((1-methyl-1H-benzo[d]imidazol-5-yl)oxy)phenyl)amino)pyrrolo[2,1-f][1,2,4]triazin-5-yl)piperidin-1-yl)but-2-en-1-one]: the IC50 in the test with BaF3_HER2WT cells was in the range of 200 to 500 nM; in the test on BaF3_HER2YVMA cells, 500 to 1500 nM; in the test with BaF3_EGFRWT cells, 1500 to 5000 nM.

With `Cc1cc(Nc2ncnn3ccc(C4CN(C(=O)/C=C/CN5CC(F)C5)C4)c23)ccc1Oc1ccc2c(c1)ncn2C` [Example 161, (E)-4-(3-fluoroazetidin-1-yl)-1-(3-(4-((3-methyl-4-((1-methyl-1H-benzo[d]imidazol-5-yl)oxy)phenyl)amino)pyrrolo[2,1-f][1,2,4]triazin-5-yl)azetidin-1-yl)but-2-en-1-one], the IC50 in the test with BaF3_HER2WT cells was less than 200 nM; with BaF3_HER2YVMA cells, less than 200 nM; with BaF3_EGFRWT cells, 1500 to 5000 nM.

For the molecule `C=CC(=O)NC1CCN(c2ccn3ncnc(Nc4ccc(Oc5ccn6ncnc6c5)c(C)c4)c23)CC1` [Example 78, N-(1-(4-((4-([1,2,4]triazolo[1,5-a]pyridin-7-yloxy)-3-methylphenyl)amino)pyrrolo[2,1-f][1,2,4]triazin-5-yl)piperidin-4-yl)acrylamide], the 50% inhibitory concentration (IC50) in the test with BaF3_HER2WT cells is less than 200 nM; in the test on BaF3_HER2YVMA cells, 200 to 500 nM; in the test with BaF3_EGFRWT cells, 1500 to 5000 nM.

In the case of `C=CC(=O)NC1CCN(c2ccn3ncnc(Nc4ccc(Oc5ccn6ncnc6c5)c(C)c4)c23)C1` (stereo not drawn) [Example 79, N-(1-(4-((4-([1,2,4]triazolo[1,5-a]pyridin-7-yloxy)-3-methylphenyl)amino)pyrrolo[2,1-f][1,2,4]triazin-5-yl)pyrrolidin-3-yl)acrylamide], the IC50 was less than 200 nM in the test with BaF3_HER2WT cells, 200 to 500 nM with BaF3_HER2YVMA cells and 1500 to 5000 nM in the test with BaF3_EGFRWT cells.

Take `Cc1cc(Nc2ncnn3ccc(C4CCN(C(=O)/C=C/CN)CC4)c23)ccc1Oc1ccn2ncnc2c1` [Example 150, (E)-1-(4-(4-((4-([1,2,4]triazolo[1,5-a]pyridin-7-yloxy)-3-methylphenyl)amino)pyrrolo[2,1-f][1,2,4]triazin-5-yl)piperidin-1-yl)-4-aminobut-2-en-1-one]: the IC50 fell in the range of 500 to 1500 nM in the test on BaF3_HER2WT cells, 1500 to 5000 nM in the test with BaF3_HER2YVMA cells and 1500 to 5000 nM in the test with BaF3_EGFRWT cells.

Take `Cc1cc(Nc2ncnn3ccc(N4CCCN(C(=O)/C=C/CN5CCOCC5)CC4)c23)ccc1Oc1ccn2ncnc2c1` [Example 80, (E)-1-(4-(4-((4-([1,2,4]triazolo[1,5-a]pyridin-7-yloxy)-3-methylphenyl)amino)pyrrolo[2,1-f][1,2,4]triazin-5-yl)-1,4-diazepan-1-yl)-4-morpholinobut-2-en-1-one]: the figures for the IC50 in the test on BaF3_HER2WT cells, in the test on BaF3_HER2YVMA cells and in the test on BaF3_EGFRWT cells were less than 200 nM, 1500 to 5000 nM and 1500 to 5000 nM, respectively.

`COC/C=C/C(=O)N1CCC(c2ccn3ncnc(Nc4ccc(Oc5ccn6ncnc6c5)c(C)c4)c23)CC1` [Example 58, (E)-1-(4-(4-((4-([1,2,4]triazolo[1,5-a]pyridin-7-yloxy)-3-methylphenyl)amino)pyrrolo[2,1-f][1,2,4]triazin-5-yl)piperidin-1-yl)-4-methoxybut-2-en-1-one]: the IC50 was less than 200 nM with BaF3_HER2WT cells, 500 to 1500 nM with BaF3_HER2YVMA cells and 1500 to 5000 nM in the test with BaF3_EGFRWT cells.

`Cc1cc(Nc2ncnn3ccc(C4CCN(C(=O)/C=C/CN5CC6COCC6C5)CC4)c23)ccc1Oc1ccn2ncnc2c1` (stereo not drawn) [Example 119, E-1-(4-(4-((4-([1,2,4]triazolo[1,5-a]-208-midazol-7-yloxy)-3-methylphenyl)amino)pyrrolo[2,1-f][1,2,4]triazin-5-yl)piperidin-1-yl)-4-(tetrahydro-1H-furo[3,4-c]pyrrol-5(3H)-yl)but-2-en-1-one]: the IC50 was less than 200 nM with BaF3_HER2WT cells, less than 200 nM with BaF3_HER2YVMA cells and 1500 to 5000 nM in the test with BaF3_EGFRWT cells.

Take `C=CC(=O)N1CCN(c2ccn3ncnc(Nc4ccc(Oc5ccn6ncnc6c5)c(C)c4)c23)CC12CC2` [Example 75, 1-(7-(4-((4-([1,2,4]triazolo[1,5-a]pyridin-7-yloxy)-3-methylphenyl)amino)pyrrolo[2,1-f][1,2,4]triazin-5-yl)-4,7-diazaspiro[2.5]octan-4-yl)prop-2-en-1-one]: the IC50 in the test with BaF3_HER2WT cells is less than 200 nM; with BaF3_HER2YVMA cells, less than 200 nM; in the test on BaF3_EGFRWT cells, 500 to 1500 nM.

In the case of `C=CC(=O)N1CCCC(c2ccn3ncnc(Nc4ccc(Oc5ccn6ncnc6c5)c(C)c4)c23)CC1` (single isomer, unassigned) [Examples 111 and 112, first eluting isomer, 1-(4-(4-((4-([1,2,4]triazolo[1,5-a]pyridin-7-yloxy)-3-methylphenyl)amino)pyrrolo-[2,1-f][1,2,4]triazin-5-yl)azepan-1-yl)prop-2-en-1-one], the IC50 was less than 200 nM with BaF3_HER2WT cells, less than 200 nM in the test on BaF3_HER2YVMA cells and 1500 to 5000 nM in the test on BaF3_EGFRWT cells.

On to `Cc1cc(Nc2ncnn3ccc(C4CCCN(C(=O)/C=C/CN(C)C)CC4)c23)ccc1Oc1ccn2ncnc2c1` (single isomer, unassigned) [Examples 109 and 110, first eluting isomer, (E)-1-(4-(4-((4-([1,2,4]triazolo[1,5-a]pyridin-7-yloxy)-3-methylphenyl)amino)pyrrolo[2,1-f][1,2,4]triazin-5-yl)azepan-1-yl)-4-(dimethylamino)but-2-en-1-one], for which the results for the IC50 in the test on BaF3_HER2WT cells, in the test with BaF3_HER2YVMA cells and in the test with BaF3_EGFRWT cells were less than 200 nM, less than 200 nM and 1500 to 5000 nM, respectively.

In the case of `Cc1cc(Nc2ncnn3ccc(C4CN(C(=O)/C=C\C56CCCN5CCC6)C4)c23)ccc1Oc1ccn2ncnc2c1` [Example 160, (Z)-1-(3-(4-((4-([1,2,4]triazolo[1,5-a]pyridin-7-yloxy)-3-methylphenyl)amino)pyrrolo[2,1-f][1,2,4]triazin-5-yl)azetidin-1-yl)-3-(tetrahydro-1H-pyrrolizin-7a(5H)-yl)prop-2-en-1-one], the results for the IC50 with BaF3_HER2WT cells, in the test on BaF3_HER2YVMA cells and with BaF3_EGFRWT cells were less than 200 nM, less than 200 nM and 1500 to 5000 nM, respectively.

With `Cc1cc(Nc2ncnn3ccc(C4CN(C(=O)/C=C/CN5CCOCC5)C4)c23)ccc1Oc1ccn2ncnc2c1` [Example 37, (E)-1-(3-(4-((4-([1,2,4]triazolo[1,5-a]pyridin-7-yloxy)-3-methylphenyl)amino)pyrrolo[2,1-f][1,2,4]triazin-5-yl)azetidin-1-yl)-4-morpholinobut-2-en-1-one], the values for the IC50 in the test with BaF3_HER2WT cells, with BaF3_HER2YVMA cells and in the test with BaF3_EGFRWT cells were less than 200 nM, less than 200 nM and 1500 to 5000 nM, respectively.

As for `CNC/C=C/C(=O)N1CC(c2ccn3ncnc(Nc4ccc(Oc5ccn6ncnc6c5)c(C)c4)c23)C1` [Example 151, (E)-1-(3-(4-((4-([1,2,4]triazolo[1,5-a]pyridin-7-yloxy)-3-methylphenyl)amino)pyrrolo[2,1-f][1,2,4]triazin-5-yl)azetidin-1-yl)-4-(methylamino)but-2-en-1-one], the IC50 with BaF3_HER2WT cells was less than 200 nM; in the test on BaF3_HER2YVMA cells, less than 200 nM; with BaF3_EGFRWT cells it was 1500 to 5000 nM.

As for `Cc1cc(Nc2ncnn3ccc(C4CN(C(=O)/C=C/CN5CCC(F)(F)C5)C4)c23)ccc1Oc1ccn2ncnc2c1` [Example 84, (E)-1-(3-(4-((4-([1,2,4]triazolo[1,5-a]pyridin-7-yloxy)-3-methylphenyl)amino)pyrrolo[2,1-f][1,2,4]triazin-5-yl)azetidin-1-yl)-4-(3,3-difluoropyrrolidin-1-yl)but-2-en-1-one], the IC50 in the test with BaF3_HER2WT cells is less than 200 nM; in the test with BaF3_HER2YVMA cells, 200 to 500 nM; with BaF3_EGFRWT cells, 1500 to 5000 nM.

With `Cc1cc(Nc2ncnn3ccc(C4CC5CCC4CN5C(=O)/C=C/CN(C)C)c23)ccc1Oc1ccn2ncnc2c1` (single isomer, unassigned) [Examples 137 and 138, second eluting isomer, (E)-1-(5-(4-((4-([1,2,4]triazolo[1,5-a]pyridin-7-yloxy)-3-methylphenyl)amino)pyrrolo[2,1-f][1,2,4]triazin-5-yl)-2-azabicyclo[2.2.2]octan-2-yl)-4-(dimethylamino)but-2-en-1-one], the IC50 with BaF3_HER2WT cells fell in the range of 500 to 1500 nM; in the test with BaF3_HER2YVMA cells it was 1500 to 5000 nM; in the test with BaF3_EGFRWT cells it was 1500 to 5000 nM.

As to `CO[C@@H]1CN(C/C=C/C(=O)N2CCC(c3ccn4ncnc(Nc5ccc(Oc6ccc7c(c6)ncn7C)c(C)c5)c34)CC2)C[C@H]1OC` [Example 168, (E)-4-((3R,4R)-3,4-dimethoxypyrrolidin-1-yl)-1-(4-(4-((3-methyl-4-((1-methyl-1H-benzo[d]imidazol-5-yl)oxy)phenyl)amino)pyrrolo[2,1-f][1,2,4]triazin-5-yl)piperidin-1-yl)but-2-en-1-one], the IC50 was less than 200 nM with BaF3_HER2WT cells, less than 200 nM with BaF3_HER2YVMA cells and 1500 to 5000 nM in the test with BaF3_EGFRWT cells.
